≈ marks a conversion by molar mass, not a printed value. Where two headings read alike, the source gives them in different places.
Test system: P. salmonis
Test: MIC by broth micro dilution in Austral-SRS broth
Type: cell-based
Conditions: Piscirickettsia salmonis
[1] = P. salmonis ATCC VR-1361 (type strain), 18° C., read-out: MIC value
[2] = P. salmonis isolates (austral-005), 18° C., n=10, read-out: MIC values

SMILES: CS(=O)(=O)c1ccc([C@@H](O)[C@@H](CF)NC(=O)C(Cl)Cl)cc1 [florfenicol]
- MIC: 0.5 µg/mL (≈ 1.4 µM)
- MIC [1]: 0.25 to 0.5 µg/mL (≈ 0.698 to 1.4 µM)
- MIC [2]: 0.25 to 0.5 µg/mL (≈ 0.698 to 1.4 µM)

SMILES: CN(C)[C@@H]1C(O)=C(C(N)=O)C(=O)[C@@]2(O)C(O)=C3C(=O)c4c(O)cccc4[C@@](C)(O)[C@H]3[C@H](O)[C@@H]12 [oxytetracycline]
- MIC: 0.124 µg/mL (≈ 0.269 µM)
- MIC [1]: 0.25 to 0.5 µg/mL (≈ 0.543 to 1.09 µM)
- MIC [2]: 0.125 to 2.5 µg/mL (≈ 0.271 to 5.43 µM)

Reference: patent US20140147467A1, “Novel broth medium and blood free solid media” (priority 2012, published 2014)
